By pIC50 is commonly meant −log10 of the IC50, conventionally taken in molar units.

Assay [1] concerns the target T1, Androgen receptor (Homo sapiens, UniProt P10275).
T1 sequence (P10275 whole entry): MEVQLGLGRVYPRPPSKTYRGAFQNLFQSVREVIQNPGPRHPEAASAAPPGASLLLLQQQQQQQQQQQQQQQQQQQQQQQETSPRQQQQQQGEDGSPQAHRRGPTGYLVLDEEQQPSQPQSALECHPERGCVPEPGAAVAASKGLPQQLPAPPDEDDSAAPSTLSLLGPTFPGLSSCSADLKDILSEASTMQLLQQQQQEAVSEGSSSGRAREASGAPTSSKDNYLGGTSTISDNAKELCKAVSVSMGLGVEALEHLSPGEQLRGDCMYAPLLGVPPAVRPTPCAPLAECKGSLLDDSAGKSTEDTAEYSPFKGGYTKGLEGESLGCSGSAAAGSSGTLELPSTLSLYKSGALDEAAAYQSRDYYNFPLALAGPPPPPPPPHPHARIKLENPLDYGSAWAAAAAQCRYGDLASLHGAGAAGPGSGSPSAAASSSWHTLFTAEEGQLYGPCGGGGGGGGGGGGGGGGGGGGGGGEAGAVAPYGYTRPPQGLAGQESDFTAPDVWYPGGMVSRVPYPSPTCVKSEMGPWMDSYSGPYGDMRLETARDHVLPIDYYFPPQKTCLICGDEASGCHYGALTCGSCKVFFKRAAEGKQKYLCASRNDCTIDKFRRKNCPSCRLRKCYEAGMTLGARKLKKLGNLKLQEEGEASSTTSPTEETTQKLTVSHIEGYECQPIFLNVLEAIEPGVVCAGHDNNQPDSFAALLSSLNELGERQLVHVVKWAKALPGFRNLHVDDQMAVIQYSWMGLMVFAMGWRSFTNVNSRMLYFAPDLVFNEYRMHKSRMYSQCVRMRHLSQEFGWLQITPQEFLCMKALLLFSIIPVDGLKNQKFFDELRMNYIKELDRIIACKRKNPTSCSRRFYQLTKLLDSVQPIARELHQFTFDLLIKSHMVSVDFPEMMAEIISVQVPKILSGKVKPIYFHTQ
Description: Antagonist activity at androgen receptor expressed in HeLa cells assessed as inhibition of dihydrotestosterone-induced transcriptional activity by reporter gene assay

The target of assay [2] is T2, Androgen receptor (Homo sapiens) (UniProt P10275).
T2 sequence (whole entry): T1 sequence (P10275 whole entry)
The following applies: HeLa.
Description: Agonist activity at androgen receptor expressed in HeLa cells assessed as effect on dihydrotestosterone-induced transcriptional activity by reporter gene assay

Assay [3] concerns the target T1, Androgen receptor. The assay is described as follows: biochemical.
Description: Displacement of [3H]mibolerone from androgen receptor expressed in CHOK1 cells
Assay [4] relates to Mus musculus. Description: Effect on po dosed seminal vesicle wet weight in mouse. The assay is classed as functional, organism-based.
Assay [5] relates to Mus musculus. The assay is described as follows: Effect on subcutaneously dosed seminal vesicle wet weight in mouse. Type of assay: functional, organism-based.

pIC50: −log10 of the molar value. Calls of active or inactive are those of the source. No cut-off for these calls is given here. Where only a bound is given, the exact number is not on record here.

`C[C@]12CCC(=O)C[C@@H]1CC(CCCCCCCC(=O)N1CCCC1)[C@@H]1[C@@H]2CC[C@]2(C)[C@@H](O)CC[C@@H]12` (some centres not stated): the pIC50 was 6.52 against Androgen receptor [1] and 6.46 at Androgen receptor [3]. Moreover, the FI5 in assay [2] was more than 10000 nM.

The compound `C[C@]12CCC(=O)C[C@@H]1CC(CCCCCCCC(=O)N1CCOCC1)[C@@H]1[C@@H]2CC[C@]2(C)[C@@H](O)CC[C@@H]12` (some centres not stated) showed an FI5 in assay [2] of more than 10000 nM.

On to `CCCCN(C)C(=O)CCCCCCCCC[C@@H]1CC2CC(=O)CC[C@]2(C)[C@H]2CC[C@]3(C)[C@@H](O)CC[C@H]3[C@H]12` (some centres not stated), for which the pIC50 on Androgen receptor [1] was 5.74; against Androgen receptor [3], 6.24. In addition, the FI5 in assay [2] turned out to be 570 nM.

With `CC(C)N(C)C(=O)CCCCCCCC1C[C@H]2CC(=O)CC[C@]2(C)[C@H]2CC[C@]3(C)[C@@H](O)CC[C@H]3[C@H]12` (some centres not stated), the pIC50 at Androgen receptor [1] was 6.38; at Androgen receptor [3] it was 6.37. The FI5 in assay [2] is more than 10000 nM.

Turning to `C[C@]12CC[C@H]3[C@@H]([C@H](CCCCC[S+]([O-])CCCC(F)(F)C(F)(F)F)CC4CC(=O)CC[C@@]43C)[C@@H]1CC[C@@H]2O` (some centres not stated), the figures for the pIC50 at Androgen receptor [1] and against Androgen receptor [3] were less than 5.00 and 5.17, respectively. In assay [2], this compound yielded an FI5 of 16 nM.

For the compound `CN(Cc1ccccc1)C(=O)CCCCCCCC1C[C@H]2CC(=O)CC[C@]2(C)[C@H]2CC[C@]3(C)[C@@H](O)CC[C@H]3[C@H]12` (some centres not stated), in assay [2], the FI5 was more than 10000 nM.

For the compound `CCCCN(C)C(=O)CCCCCCCCCCC[C@@H]1CC2CC(=O)CC[C@]2(C)[C@H]2CC[C@]3(C)[C@@H](O)CC[C@H]3[C@H]12` (some centres not stated), the pIC50 against Androgen receptor [1] is 5.46; against Androgen receptor [3], 5.00. The compound further showed an FI5 in assay [2] of 9900 nM.

As to `CCN(CC)C(=O)CCCCCCC1C[C@H]2CC(=O)CC[C@]2(C)[C@H]2CC[C@]3(C)[C@@H](O)CC[C@H]3[C@H]12` (some centres not stated), the pIC50 against Androgen receptor [1] was 6.28; against Androgen receptor [3], 6.48. Also, in assay [2], the FI5 was 1700 nM.

For the compound `CCCN(C)C(=O)CCCCCCCC1C[C@H]2CC(=O)CC[C@]2(C)[C@H]2CC[C@]3(C)[C@@H](O)CC[C@H]3[C@H]12` (some centres not stated), the pIC50 on Androgen receptor [1] is 5.96; against Androgen receptor [3] it was 6.52. Moreover, in assay [2], the FI5 is more than 10000 nM.

In the case of `CCCCN(C)C(=O)CCCCCCCC[C@@H]1CC2CC(=O)CC[C@]2(C)[C@H]2CC[C@]3(C)[C@@H](O)CC[C@H]3[C@H]12` (some centres not stated), the values for the pIC50 against Androgen receptor [1] and on Androgen receptor [3] were 5.47 and 6.26, respectively. In assay [2], the FI5 worked out at 550 nM.

Turning to `C[C@]12CCC(=O)C[C@@H]1CC(CCCCCCCC(=O)N1CCCCC1)[C@@H]1[C@@H]2CC[C@]2(C)[C@@H](O)CC[C@@H]12` (some centres not stated), the FI5 in assay [2] was more than 10000 nM.

In the case of `CN(C)C(=O)CCCCCCCC1C[C@H]2CC(=O)CC[C@]2(C)[C@H]2CC[C@]3(C)[C@@H](O)CC[C@H]3[C@H]12` (some centres not stated), the result with Mus musculus [4] and in the assay on Mus musculus [5] was Active. Besides, the pIC50 is 6.72 on Androgen receptor [1] and 6.59 on Androgen receptor [3]. The compound also came in with an FI5 in assay [2] of more than 10000 nM.

`CCCCN(C)C(=O)CCCCCCC[C@@H]1CC2CC(=O)CC[C@]2(C)[C@H]2CC[C@]3(C)[C@@H](O)CC[C@H]3[C@H]12` (some centres not stated): the pIC50 was 6.47 against Androgen receptor [1] and 6.55 at Androgen receptor [3]. The same compound had an FI5 in assay [2] of 280 nM.

For `C[C@]12CCC(=O)C[C@@H]1CC(CCCCCCCC(N)=O)[C@@H]1[C@@H]2CC[C@]2(C)[C@@H](O)CC[C@@H]12` (some centres not stated), the negative-log IC50 (pIC50) against Androgen receptor [1] was 6.35; against Androgen receptor [3], 6.59. In assay [2], this compound had an FI5 of 2400 nM.

Turning to `C[C@]12CC[C@H]3[C@@H]([C@H](CCCCCCCCC[S+]([O-])CCCC(F)(F)C(F)(F)F)CC4CC(=O)CC[C@@]43C)[C@@H]1CC[C@@H]2O` (some centres not stated), the pIC50 at Androgen receptor [1] was 5.54; against Androgen receptor [3], 6.96. Further, the FI5 in assay [2] was determined as 490 nM.

Take `CCCCCCNC(=O)CCCCCCCC1C[C@H]2CC(=O)CC[C@]2(C)[C@H]2CC[C@]3(C)[C@@H](O)CC[C@H]3[C@H]12` (some centres not stated): the results for the pIC50 on Androgen receptor [1] and at Androgen receptor [3] were 5.18 and 5.68, respectively. This compound came in with an FI5 in assay [2] of more than 10000 nM.

Take `C[C@]12CC[C@H]3[C@@H]([C@H](CCCCCCC[S+]([O-])CCCC(F)(F)C(F)(F)F)CC4CC(=O)CC[C@@]43C)[C@@H]1CC[C@@H]2O` (some centres not stated): the figures for the pIC50 against Androgen receptor [1] and at Androgen receptor [3] were less than 5.00 and 6.02, respectively. For the same compound, in assay [2], the FI5 came out at 200 nM.

Take `CCCCN(C)C(=O)CCCCCCCC1C[C@H]2CC(=O)CC[C@]2(C)[C@H]2CC[C@]3(C)[C@@H](O)CC[C@H]3[C@H]12` (some centres not stated): the results for the pIC50 on Androgen receptor [1] and on Androgen receptor [3] were 6.47 and 6.55, respectively. The compound also yielded an FI5 in assay [2] of more than 10000 nM.

On to `CCN(C)C(=O)CCCCCCCC1C[C@H]2CC(=O)CC[C@]2(C)[C@H]2CC[C@]3(C)[C@@H](O)CC[C@H]3[C@H]12` (some centres not stated), for which the values for the pIC50 at Androgen receptor [1] and on Androgen receptor [3] were 6.38 and 6.18, respectively. In assay [2], this compound returned an FI5 of more than 10000 nM.

For the compound `CCN(CC)C(=O)CCCCCCCC1C[C@H]2CC(=O)CC[C@]2(C)[C@H]2CC[C@]3(C)[C@@H](O)CC[C@H]3[C@H]12` (some centres not stated), the pIC50 against Androgen receptor [1] was 6.52; against Androgen receptor [3], 6.92. The FI5 in assay [2] is more than 10000 nM.

Take `CCNC(=O)CCCCCCCC1C[C@H]2CC(=O)CC[C@]2(C)[C@H]2CC[C@]3(C)[C@@H](O)CC[C@H]3[C@H]12` (some centres not stated): the pIC50 is 6.03 at Androgen receptor [1] and 5.82 at Androgen receptor [3]. Further, the FI5 in assay [2] is more than 10000 nM.

For the compound `C[C@]12CC[C@H]3[C@@H]([C@H](CCCCCCCCCCC[S+]([O-])CCCC(F)(F)C(F)(F)F)CC4CC(=O)CC[C@@]43C)[C@@H]1CC[C@@H]2O` (some centres not stated), the negative-log IC50 (pIC50) at Androgen receptor [1] and against Androgen receptor [3] was less than 5.00 in each case. In assay [2], this compound displayed an FI5 of more than 10000 nM.

The compound `CCCCNC(=O)CCCCCCCC1C[C@H]2CC(=O)CC[C@]2(C)[C@H]2CC[C@]3(C)[C@@H](O)CC[C@H]3[C@H]12` (some centres not stated) gave a pIC50 against Androgen receptor [1] of 5.20. The compound further came in with an FI5 in assay [2] of 1600 nM.

As to `C[C@]12CC[C@H]3[C@@H]([C@H](CCCCCCCCCCCCC[S+]([O-])CCCC(F)(F)C(F)(F)F)CC4CC(=O)CC[C@@]43C)[C@@H]1CC[C@@H]2O` (some centres not stated), the pIC50 at Androgen receptor [1] is 5.00; against Androgen receptor [3], less than 5.00. The compound further registered an FI5 in assay [2] of more than 10000 nM.

On to `CNC(=O)CCCCCCCC1C[C@H]2CC(=O)CC[C@]2(C)[C@H]2CC[C@]3(C)[C@@H](O)CC[C@H]3[C@H]12` (some centres not stated), for which the pIC50 at Androgen receptor [1] was 6.32; against Androgen receptor [3], 6.15. In addition, in assay [2], the FI5 is more than 10000 nM.

With `CCCCCCN(CCCCCC)C(=O)CCCCCCCC1C[C@H]2CC(=O)CC[C@]2(C)[C@H]2CC[C@]3(C)[C@@H](O)CC[C@H]3[C@H]12` (some centres not stated), the negative-log IC50 (pIC50) at Androgen receptor [1] and against Androgen receptor [3] was less than 5.00 each time. In assay [2], this compound displayed an FI5 of more than 10000 nM.

As for `CCCCN(C)C(=O)CCCCCCCCCC[C@@H]1CC2CC(=O)CC[C@]2(C)[C@H]2CC[C@]3(C)[C@@H](O)CC[C@H]3[C@H]12` (some centres not stated), the pIC50 on Androgen receptor [1] is 5.89; at Androgen receptor [3] it was 5.72. In assay [2], this compound displayed an FI5 of 1900 nM.

As to `CN(C)C(=O)CCCCCCC1C[C@H]2CC(=O)CC[C@]2(C)[C@H]2CC[C@]3(C)[C@@H](O)CC[C@H]3[C@H]12` (some centres not stated), the pIC50 is 6.70 at Androgen receptor [1] and 6.96 on Androgen receptor [3]. In addition, the FI5 in assay [2] turned out to be 490 nM.

Consider `CCCNC(=O)CCCCCCCC1C[C@H]2CC(=O)CC[C@]2(C)[C@H]2CC[C@]3(C)[C@@H](O)CC[C@H]3[C@H]12` (some centres not stated), for which the pIC50 on Androgen receptor [1] was 5.74; against Androgen receptor [3], 5.80. For the same compound, the FI5 in assay [2] is more than 10000 nM.
